Values quoted from earlier work as cited in patent publication US6620802B1, “Methods of treating mild cognitive impairment using a glucocorticoid-specific receptor antagonist” (Corcept Therapeutics, Inc., priority 1999, dated 2003).

Legend:
[1] = biological target: T1, glucocorticoid (GR) receptor (Homo sapiens, UniProt P04150); conditions: literature statement
T1 sequence (P04150 1-777): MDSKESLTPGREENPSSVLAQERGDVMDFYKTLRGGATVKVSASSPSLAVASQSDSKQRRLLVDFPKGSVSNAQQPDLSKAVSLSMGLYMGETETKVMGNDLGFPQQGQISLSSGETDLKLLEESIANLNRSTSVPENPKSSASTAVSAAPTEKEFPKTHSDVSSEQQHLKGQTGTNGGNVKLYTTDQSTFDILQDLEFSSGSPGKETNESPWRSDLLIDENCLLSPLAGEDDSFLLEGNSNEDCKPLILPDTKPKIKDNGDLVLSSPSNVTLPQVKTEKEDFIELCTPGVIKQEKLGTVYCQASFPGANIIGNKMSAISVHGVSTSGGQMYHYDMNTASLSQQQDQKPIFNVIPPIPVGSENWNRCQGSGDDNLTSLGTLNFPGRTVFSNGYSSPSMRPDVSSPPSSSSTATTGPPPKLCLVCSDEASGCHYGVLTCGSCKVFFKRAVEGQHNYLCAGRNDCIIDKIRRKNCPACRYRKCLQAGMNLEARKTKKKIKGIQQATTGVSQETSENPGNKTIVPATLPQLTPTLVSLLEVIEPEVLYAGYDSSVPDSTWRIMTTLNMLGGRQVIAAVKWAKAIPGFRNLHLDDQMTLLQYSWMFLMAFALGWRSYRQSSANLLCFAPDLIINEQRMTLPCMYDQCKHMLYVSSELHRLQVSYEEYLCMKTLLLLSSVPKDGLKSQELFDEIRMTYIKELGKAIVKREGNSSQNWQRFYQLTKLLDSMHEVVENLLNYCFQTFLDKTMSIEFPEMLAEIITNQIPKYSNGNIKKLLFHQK

[2] = one study, Kawai (1989) supra
rat hippocampus = conditions: Talmi et al. 1996
[3] = test system: mouse hippocampus neuronal cells; conditions: Behl et al. 1997
progesterone receptor = biological target: T2, progesterone receptor (Homo sapiens, UniProt P06401); conditions: literature statement
T2 sequence (P06401 1-933): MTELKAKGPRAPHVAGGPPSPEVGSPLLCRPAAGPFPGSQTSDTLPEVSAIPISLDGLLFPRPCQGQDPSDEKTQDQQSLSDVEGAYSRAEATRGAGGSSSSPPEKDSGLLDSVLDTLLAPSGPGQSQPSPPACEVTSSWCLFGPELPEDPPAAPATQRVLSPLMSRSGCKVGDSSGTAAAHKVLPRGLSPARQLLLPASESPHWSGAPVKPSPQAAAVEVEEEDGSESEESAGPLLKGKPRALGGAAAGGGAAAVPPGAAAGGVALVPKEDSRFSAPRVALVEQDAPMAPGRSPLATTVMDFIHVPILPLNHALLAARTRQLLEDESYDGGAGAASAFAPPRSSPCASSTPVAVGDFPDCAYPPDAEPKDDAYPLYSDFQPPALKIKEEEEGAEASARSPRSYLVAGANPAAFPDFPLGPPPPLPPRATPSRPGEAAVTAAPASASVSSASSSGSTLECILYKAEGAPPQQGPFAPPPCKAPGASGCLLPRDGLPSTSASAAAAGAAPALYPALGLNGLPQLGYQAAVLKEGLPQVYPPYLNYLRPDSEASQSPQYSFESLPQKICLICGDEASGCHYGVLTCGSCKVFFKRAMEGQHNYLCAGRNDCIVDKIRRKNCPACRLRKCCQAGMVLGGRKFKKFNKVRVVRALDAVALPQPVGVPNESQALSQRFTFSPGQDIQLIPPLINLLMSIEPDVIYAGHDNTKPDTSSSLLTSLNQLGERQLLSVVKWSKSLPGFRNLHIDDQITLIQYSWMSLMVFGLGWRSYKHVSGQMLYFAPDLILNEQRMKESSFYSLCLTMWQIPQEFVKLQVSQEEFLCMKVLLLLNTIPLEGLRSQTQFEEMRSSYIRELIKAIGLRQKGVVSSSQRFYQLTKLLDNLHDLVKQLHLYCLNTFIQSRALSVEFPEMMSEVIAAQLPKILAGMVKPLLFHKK

Compound | GR antagonist activity [1] | share of the daily dose excreted in the urine [2] | effect on age-associated electrophysiological changes (rat hippocampus) | protection against oxidative stress-induced neuronal cell death [3] | progesterone receptor antagonist activity (progesterone receptor)
CC#C[C@]1(O)CC[C@H]2[C@@H]3CCC4=CC(=O)CCC4=C3[C@@H](c3ccc(OCCN(C)C)cc3)C[C@@]21C [RU009, 11-beta-(4-dimethyl-aminoethoxyphenyl)-17-alpha-(propynyl-17-beta-hydroxy-4,9-estradien-3-one)] | shown to have GR antagonist effects |  |  |  | 
CC#C[C@]1(O)CC[C@H]2[C@@H]3CCC4=CC(=O)CCC4=C3[C@@H](c3ccc(N(C)C)cc3)C[C@@]21C [Mifepristone, 17-beta-hydroxy-11-beta-(4-dimethyl-aminophenyl)-17-alpha(1-propynyl)-estra-4,9-dien-3-one] | powerful antagonist | less than 0.5% | effective at abrogating some of the age-associated electrophysiological changes | providing protection against oxidative stress-induced neuronal cell death | powerful antagonist
